In patent US7799791B2, “Tetrahydrofuro(3,2-B) pyrrol-3-one derivatives as inhibitors of cysteine proteinases” (Amura Therapeutics Limited, priority 2007, dated 2010):
Read-outs that look alike come from different tables or passages of the source.

What was measured:
[1] = target: T1, Human recombinant cathepsin K (Homo sapiens, UniProt P43235); assay: In vitro cathepsin Ki inhibition measurements; assay type: biochemical
T1 construct: purchased B. Turk, Josef, Stefan Institute, Ljubljana, Slovenia
T1 sequence (P43235 115-329): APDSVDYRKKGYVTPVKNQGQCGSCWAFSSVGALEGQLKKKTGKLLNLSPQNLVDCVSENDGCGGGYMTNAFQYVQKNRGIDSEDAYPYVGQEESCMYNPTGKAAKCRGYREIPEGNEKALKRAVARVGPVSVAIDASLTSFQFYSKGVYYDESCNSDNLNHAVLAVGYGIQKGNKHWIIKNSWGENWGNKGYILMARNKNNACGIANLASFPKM
Experimental: Stock solutions of substrate or inhibitor were made up to 10 mM in 100% dimethylsulfoxide (DMSO) (Rathburns, Glasgow, U.K.) and diluted as appropriately required. In all cases the DMSO concentration in the assays was maintained at less than 1% (vol./vol.). The equilibrium inhibition constants (Ki^ss) for each compound were measured under steady-state conditions monitoring enzyme activity as a function of inhibitor concentration. The values were calculated on the assumption of pure competitive behaviour (Cornish-Bowden, A. Fundamentals of enzyme kinetics Portland Press; 1995, 93-128.). Human recombinant cathepsin K (0.25 nM final; B. Turk, Josef, Stefan Institute, Ljubljana, Slovenia), was routinely assayed in 100 mM sodium acetate; pH 5.5 containing 1 mM EDTA, 10 mM L-cysteine and 1.8 μM Z-Leu-Arg-AMC ([S]=KM).
The apparent inhibition constant (Ki) for each compound was determined on the basis that inhibition was reversible and occurred by a pure-competitive mechanism. The Ki values were calculated, from the dependence of enzyme activity as a function of inhibitor concentration, by direct regression analysis (Prism v 3.02) using Equation 2 (Comish-Bowden, A., 1995.).
In situations where the apparent dissociation constant (Ki^app) approached the enzyme concentrations, the Ki^app values were calculated using a quadratic solution in the form described by Equation 3 (Morrison, J. F. Trends Biochem. Sci., 7, 102-105, 1982; Morrison, J. F. Biochim. Biophys. Acta. 185, 269-286, 1969; Stone, S. R. and Hofsteenge, J. Biochemistry, 25, 4622-4628, 1986).
Curves were fitted by non-linear regression analysis (Prism) using a fixed value for the enzyme concentration. Equation 4 was used to account for the substrate kinetics, where ‘Ki’ is the inhibition constant, ‘[So]’ is the initial substrate concentration and ‘KM^app’ is the apparent macroscopic binding (Michaelis) constant for the substrate (Morrison, 1982).

[2] = Plasma incubations (human plasma stability); assay type: in vitro ADME; conditions: 37° C., 25 μM, percent remaining at 1 hour
Experimental: Human and rat plasma were purchased from Innovative Research Inc. (Southfield. Mich., USA). […] Aliquots were removed at 2 and 60 minutes and quenched with an equal volume of cold acetonitrile. After mixing vigorously, the precipitated protein matter was removed by filtration (Multiscreen Solvinert filter plates, Millipore, Bedford, Mass., USA) and the filtrate analysed by reverse phase HPLC with mass spectrometric detection, using single ion monitoring of the [M+H]^+ species. Metabolic turnover was determined by comparison of peak areas from the ion chromatograms of the parent compound at 2 and 60 minutes and expressed as percent remaining at 1 hour.

[3] = Table 1, read-out: In vitro Ki (nM) vs Cath K
[4] = prior art WO-A-02057270 examples, Table 2, read-out: Ki (nM) vs Human Cathepsin K

Row | Ki [1, 3] [nM] | Human Plasma Stability % rem. @ 1 h [2] [%] | Ki [1, 4] [nM] | Compound
1 | 1.4 | 100 | – | CO[C@H]1CN(C(=O)[C@@H](NC(=O)c2ccc(-c3csc(N4CCN(C)CC4)n3)cc2)C2CCCC2)[C@@H]2C(=O)CO[C@H]12 [Example 1, N-((S)-1-cyclopentyl-2-((3aS,6S,6aS)-6-methoxy-3-oxodihydro-2H-furo[3,2-b]pyrrol-4(5H,6H,6aH)-yl)-2-oxoethyl)-4-(2-(4-methylpiperazin-1-yl)thiazol-4-yl)benzamide]
2 | 1.9 | 98.2 | – | CO[C@@H]1CN(C(=O)[C@@H](NC(=O)c2ccc(-c3csc(N4CCN(C)CC4)n3)cc2)C2CCCC2)[C@@H]2C(=O)CO[C@@H]21 [Example 2, N-((S)-1-cyclopentyl-2-((3aS,6R,6aS)-6-methoxy-3-oxodihydro-2H-furo[3,2-b]pyrrol-4(5H,6H,6aH)-yl)-2-oxoethyl)-4-(2-(4-methylpiperazin-1-yl)thiazol-4-yl)benzamide]
3 | 1.7 | 92.6 | – | CC(C)C[C@H](NC(=O)c1ccc(-c2csc(N3CCN(C)CC3)n2)cc1)C(=O)N1CC[C@H]2OCC(=O)[C@H]21 [Example 3, N-((S)-4-methyl-1-oxo-1-((3aS,6aR)-3-oxodihydro-2H-furo[3,2-b]pyrrol-4(5H,6H,6aH)-yl)pentan-2-yl)-4-(2-(4-methylpiperazin-1-yl)thiazol-4-yl)benzamide]
4 | 1.7 | 91.9 | – | CN1CCN(c2nc(-c3ccc(C(=O)N[C@@H](CC(C)(C)C)C(=O)N4CC[C@H]5OCC(=O)[C@H]54)cc3)cs2)CC1 [Example 4, N-((S)-4,4-dimethyl-1-oxo-1-((3aS,6aR)-3-oxodihydro-2H-furo[3,2-b]pyrrol-4(5H,6H,6aH)-yl)pentan-2-yl)-4-(2-(4-methylpiperazin-1-yl)thiazol-4-yl)benzamide]
5 | 1.3 | 82.5 | – | CN1CCN(c2nc(-c3ccc(C(=O)N[C@H](C(=O)N4CC[C@H]5OCC(=O)[C@H]54)C4CCCC4)cc3)cs2)CC1 [Example 5, N-((S)-1-cyclopentyl-2-oxo-2-((3aS,6aR)-3-oxodihydro-2H-furo[3,2-b]pyrrol-4(5H,6H,6aH)-yl)-2-oxoethyl)-4-(2-(4-methylpiperazin-1-yl)thiazol-4-yl)benzamide]
6 | 87.4 | 75 | – | CC(C)C[C@H](NC(=O)c1ccc(C(C)(C)C)cc1)C(=O)N1CC[C@H]2OCC(=O)[C@H]21 [Prior art compound 23, reference compound]
7 | – | – | > 50000 | N-((S)-1-cyclopentyl-2-((3aS,6R,6aS)-6-methoxy-3-oxodihydro-2H-furo[3,2-b]pyrrol-4(5H,6H,6aH)-yl)-2-oxoethyl)-4-(2-(4-methylpiperazin-1-yl)thiazol-4-yl)benzamide [Example 2]
8 | – | – | > 4000 | N-((S)-4-methyl-1-oxo-1-((3aS,6aR)-3-oxodihydro-2H-furo[3,2-b]pyrrol-4(5H,6H,6aH)-yl)pentan-2-yl)-4-(2-(4-methylpiperazin-1-yl)thiazol-4-yl)benzamide [Example 3]
